For this assay, the target named is acyl CoA: cholesterol acyltransferase (ACAT). The assay can be described thus: Inhibiting activity against ACAT activity of rabbit's liver microsome. To be noted: rabbit's liver microsome enzyme fraction, 1-14C-oleoyl CoA, 37° C.; read-out: Inhibiting activity against ACAT activity: IC (M) 50%. It counts as biochemical. As for the experimental part:
Inhibiting activity against acyl CoA: cholesterol acyltransferase (ACAT) activity of rabbit's liver microsome According to Heider's method [J. G. Heider et al., J. of Lipid Res. Vol. 24, 1127-34 (1983)], rabbit's liver microsome was treated to obtain enzyme fraction. To 0.154M of phosphoric acid buffer solution (pH 7.4), 2 mM of dithiothreitol, 36 μM of bovine serum albumin and 10 to 100 μg of microsome fraction, liposome prepared by Suckling's method [K. E. […] Then, 36 μM oleoyl CoA containing 1-^14 C-oleoyl CoA was added and the whole mixture was heated for 10 minutes at the temperature of 37° C. The reaction was ceased by adding chloroform/methanol (=2/1). Upon stirring, cholesterol oleate extracted into chloroform layer was separated by thin layer chromatography and the radioactivity was then determined as ACAT activity.
Background: Liver microsomes are a subcellular fraction often used to study metabolism.

The text below walks through data of patent US5091419A, “Diurea derivatives useful as medicaments and processes for the preparation thereof” (Yamanouchi Pharmaceutical Co., Ltd., priority 1988, dated 1992).

Each structure is given as a SMILES string.

As for `O=C(Nc1ccc(F)cc1F)N(Cc1cccc(CN(C(=O)Nc2ccc(F)cc2F)C2CCCCCC2)c1)C1CCCCCC1` [Example 1, 1,3-bis[[1-cycloheptyl-3-(2,4-difluorophenyl)ureido]methyl]benzene], the IC50 was determined as 1.8e-08 M.
